Values of other authors in patent US10829440B2, “Antibacterial compounds and methods of making and using same” (Brown University, priority 2015, dated 2020).

System: LT
Conditions: cited from earlier work

## CC1=N[C@@H]2[C@@H](O)[C@H](O)[C@@H](CO)O[C@@H]2S1 [NAG-thiazoline]
  binding of LT: weak binder
